{"source": "patent US20200069775A1", "about": "“BRAIN OSTEOCALCIN RECEPTOR AND COGNITIVE DISORDERS” (The Trustees of Columbia University in the City of New York, priority 2017, published 2020)", "key": {"[1]": {"test_system": "mouse primary hindbrain neurons (MPHN)", "experiment": "Gene expression in mouse primary hindbrain neurons (MPHN)", "assay_type": "cell-based", "conditions": "osteocalcin 3 ng/ml, 2 or 4 hours; WT and Gprc6a−/− primary brainstem neuronal culture", "experimental": "For gene expression studies, RNA was isolated from primary neurons or tissue using TRIZOL® (Invitrogen). cDNA synthesis was performed following a standard protocol from Invitrogen and qPCR analyses were done using specific quantitative PCR primers from SABiosciences (http://www.sabiosciences.com/RT2PCR.php).\nFor primary culture of hindbrain neurons, E14.5 embryos were obtained from matings of 129-Sv WT mice. Hindbrains were dissected out and collected in ice-cold filter sterilized HBSS buffered with 10 mM HEPES until dissection was complete, at which point they were finely chopped into 2 mm cubes, dissociated by trituration with a fire-polished Pasteur pipette and spun down at 4° C. Cells were then plated onto poly-D-lysine coated coverslips or dishes in Neurobasal medium supplemented with 2% B27, 0.25 mM Glutamax, 0.25 mM L-glutamine, penicillin G (50 U/ml), and streptomycin sulphate ([…]). Cultures were fed every 3-6 days with one half replacement medium without L-glutamine.\nTo determine if osteocalcin acts directly on neurons to modulate neurotransmitter synthesis, several types of assays were performed. First, brainstem and midbrain explants from WT and Gprc6a^−/− mice were generated. […] Third, to further confirm that osteocalcin signals in neurons of the hindbrain, calcium flux in MPHN treated with undercarboxylated or carboxylated osteocalcin (FIG. 3F) was measured."}, "[2]": {"test_system": "Osteocalcin−/− mice", "experiment": "Intracerebro-ventricular (ICV) infusion in Osteocalcin−/− mice, behavioral tests", "assay_type": "in vivo, mouse", "experimental": "Osteocalcin−/−, Gprc6a−/−, Osteocalcin-mCherry, and Osteocalcin foxed mice have been previously described (Ducy et al., 1996, Nature 382:448-452; Oury et al., 2011, Cell 144:796-809). Mouse genotypes were determined by PCR. For all experiments, controls were littermate female WT, Cre-expressing, or flox/flox. All mice were maintained on a pure 129-Sv genetic background except for the inducible deletion Osteocalcin model (mix background: 25% C57/BL6 and 75% 129sv). For inducible gene deletion mice, tamoxifen was prepared in corn oil and injected intraperitoneally (IP) (1 mg/20g of body weight) over one week. For osteocalcin delivery to pregnant mice, IP injections (240 ng/day) were performed as soon as a plug was present daily until delivery (E0.5-E18.5). For osteocalcin or leptin infusion in adult Osteocalcin−/− or ob/ob mice, pumps (Alzet micro-osmotic pump, Model 1002) delivering osteocalcin (300 ng/hr), leptin (50 ng/hr), or vehicle were surgically installed subcutaneously in the backs of 3-month old mice. […] Leptin and osteocalcin content in sera and tissues were determined by ELISA.\nTail suspension testing was performed as previously described (Mayorga et al., 2001, J. Pharmacology Exper. Therapeutics 298:1101-1107; Stem et al., 1985, Psychopharmacology 85:367-370). […] The parameter recorded was the number of seconds spent immobile. Mice were scored by a highly trained observer, over a 5 min period, blind to the genotype of the mice.\nAnxiety and locomotor activity of mice were measured using the open field test (David et al., 2009, Neuron 62:479-493). […] Mice were monitored throughout each test session by video tracking and analyzed using Matlab software. […] The overall motor activity was quantified as the total distance travelled. The anxiety was quantified measuring the number of rearings and the time and distance spent in the center versus periphery of the open field chamber (in %).\nEach mouse was allowed to explore the apparatus for 5 min. Global activity was assessed by measuring the number of entries […] (David et al, 2009, Neuron 62:479-493). […]"}}}
{"substance": "osteocalcin: Recombinant osteocalcin bacterially produced, cleaved from the GST subunit; completely undercarboxylated at all three sites; full-length mouse osteocalcin (YLGASVPSPDPLEPTREQCELNPACDELSDQYGLKTAYKRIYGITI)", "values": [{"measurement": "Tph2 expression", "setting": "[1]", "result": "increased more than three-fold"}, {"measurement": "decrease of GAD1 expression", "setting": "[1]", "result": 65, "unit": "%"}, {"measurement": "anxiety and depression features", "setting": "[2]; Osteocalcin−/− mice, ICV 10 ng/hour, week-long treatment", "result": "corrected the anxiety and depression features"}, {"measurement": "leakage of centrally delivered hormone into the general circulation (osteocalcin in blood)", "setting": "[2]; Osteocalcin−/− mice, ICV infusion", "result": "no leakage"}, {"measurement": "defects in anxiety, depression, learning, and memory", "setting": "[2]; direct administration to the brains of adult Osteocalcin−/− mice", "result": "rescued defects in anxiety, depression, learning, and memory"}]}
